Reference: patent US6914045B2, “Glycopeptide antibiotics” (Wyeth Holdings Corporation, priority 2001, dated 2005)
≈ marks a conversion by molar mass, not a printed value.

What was measured:
Test in all cases: in vitro antibacterial evaluation, MIC by broth dilution
Type in all cases: cell-based
[1] = test system: Streptococcus sp.; conditions: broth dilution, 18 hours at 35° C.
Procedure, shortened: (§1)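 Following National Committee for Clinical Laboratory Standards recommendations (M7-A2), susceptibility was measured by dilution in Muller-Hinton II […]. Bacteria were seeded at 5×10^5 CFU/mL against compound concentrations from 64 down to 0.06 μg/mL.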

[2] = test system: Staphylococcus sp.; conditions: broth dilution, 18 hours at 35° C.
Procedure, shortened: as §1

[3] = test system: Escherichia coli; conditions: 18 hours at 35° C.
Procedure, shortened: as §1

[4] = test system: Enterococcus sp.; conditions: broth dilution, 18 hours at 35° C.
Procedure, shortened: as §1

Q: Which results are given for `CC(C)=CCCC(C)CC1OCC2OC(OC3C(CO)OC(Oc4ccc(CC5NC(=O)C(C(C)c6ccccc6)NC(=O)CNC(=O)C(CO)NC(=O)C(C(O)C6CNC(=N)N6C6OC(CO)C(O)C(O)C6O)NC(=O)C(C(O)C6CNC(=N)N6)NC5=O)cc4)C(O)C3O)C(O)C(O)C2O1` (stereo not shown) [Example 126]?
A: MIC Streptococcus agalactiae (GC 4564) ([1]; Streptococcus agalactiae (GC 4564)): 1 µg/mL (≈ 0.699 µM); MIC Streptococcus pneumoniae (ATCC 6301) ([1]; Streptococcus pneumoniae (ATCC 6301)): <0.06 µg/mL; MIC Streptococcus pneumoniae (GC 1894) ([1]; Streptococcus pneumoniae (GC 1894)): <0.06 µg/mL; MIC Streptococcus pneumoniae (GC 4565) ([1]; Streptococcus pneumoniae (GC 4565)): <0.06 µg/mL; MIC Streptococcus pyogenes (GC 4563) ([1]; Streptococcus pyogenes (GC 4563)): 0.12 µg/mL (≈ 0.0838 µM); MIC Streptococcus pneumoniae (ATCC 6301) ([1]; strain ATCC 6301): <0.06 µg/mL; MIC Streptococcus pneumoniae (GC 1894) ([1]; strain GC 1894): <0.06 µg/mL; MIC Streptococcus pyogenes (GC 4563) ([1]; strain GC 4563): 0.12 µg/mL (≈ 0.0838 µM); MIC Streptococcus agalactiae (GC 4564) ([1]; strain GC 4564): 1 µg/mL (≈ 0.699 µM); MIC Streptococcus pneumoniae (GC 4565) ([1]; strain GC 4565): <0.06 µg/mL; MIC Staphylococcus aureus (ATCC 29213) [2]: 8 µg/mL (≈ 5.59 µM); MIC Staphylococcus aureus (GC 1131) [2]: 8 µg/mL (≈ 5.59 µM); MIC Staphylococcus aureus (GC 3051) [2]: 8 µg/mL (≈ 5.59 µM); MIC Staphylococcus aureus (GC 3053) [2]: 8 µg/mL (≈ 5.59 µM); MIC Staphylococcus aureus (GC 4541) [2]: 8 µg/mL (≈ 5.59 µM); MIC Staphylococcus aureus (GC 4542) [2]: 8 µg/mL (≈ 5.59 µM); MIC Staphylococcus aureus (GC 4544) [2]: 8 µg/mL (≈ 5.59 µM); MIC Staphylococcus aureus (GC 4545) [2]: 8 µg/mL (≈ 5.59 µM); MIC Staphylococcus aureus (GC 1131) ([2]; inoculum 5×10^5 CFU/mL, strain GC 1131): 8 µg/mL (≈ 5.59 µM); MIC Staphylococcus aureus (ATCC 29213) ([2]; strain ATCC 29213): 8 µg/mL (≈ 5.59 µM); MIC Staphylococcus aureus (GC 3051) ([2]; strain GC 3051): 8 µg/mL (≈ 5.59 µM); MIC Staphylococcus aureus (GC 3053) ([2]; strain GC 3053): 8 µg/mL (≈ 5.59 µM); MIC Staphylococcus aureus (GC 4541) ([2]; strain GC 4541): 8 µg/mL (≈ 5.59 µM); MIC Staphylococcus aureus (GC 4542) ([2]; strain GC 4542): 8 µg/mL (≈ 5.59 µM); MIC Staphylococcus aureus-SMITH (GC 4543) ([2]; strain GC 4543): 8 µg/mL (≈ 5.59 µM); MIC Staphylococcus aureus (GC 4544) ([2]; strain GC 4544): 8 µg/mL (≈ 5.59 µM); MIC Staphylococcus aureus (GC 4545) ([2]; strain GC 4545): 8 µg/mL (≈ 5.59 µM); MIC Staphylococcus haemolyticus (GC 4546) ([2]; strain GC 4546): 8 µg/mL (≈ 5.59 µM); MIC Coagulase Negative Staphylococcus (GC 4547) ([2]; strain GC 4547): 8 µg/mL (≈ 5.59 µM); MIC Coagulase Negative Staphylococcus (GC 4548) ([2]; strain GC 4548): 8 µg/mL (≈ 5.59 µM); MIC Coagulase Negative Staphylococcus (GC 4549) ([2]; strain GC 4549): 8 µg/mL (≈ 5.59 µM); MIC Coagulase Negative Staphylococcus (GC 4551) ([2]; strain GC 4551): 8 µg/mL (≈ 5.59 µM); MIC Coagulase Negative Staphylococcus (GC 6257) ([2]; strain GC 6257): 8 µg/mL (≈ 5.59 µM); MIC Staphylococcus aureus-SMITH (GC 4543) ([2]; strain SMITH GC 4543): 8 µg/mL (≈ 5.59 µM); MIC Escherichia coli (ATCC 25922) ([3]; strain ATCC 25922): 64 µg/mL (≈ 44.7 µM); MIC Escherichia coli (GC 4559) ([3]; strain GC 4559): 64 µg/mL (≈ 44.7 µM); MIC Escherichia coli (GC 4560) ([3]; strain GC 4560): 8 µg/mL (≈ 5.59 µM); MIC Enterococcus avium (GC 4558) ([4]; Enterococcus avium (GC 4558)): 8 µg/mL (≈ 5.59 µM); MIC Enterococcus faecalis (ATCC 29212) ([4]; Enterococcus faecalis (ATCC 29212)): 8 µg/mL (≈ 5.59 µM); MIC Enterococcus faecalis (GC 2242) ([4]; Enterococcus faecalis (GC 2242)): 8 µg/mL (≈ 5.59 µM); MIC Enterococcus faecalis (GC 2691) ([4]; Enterococcus faecalis (GC 2691)): 8 µg/mL (≈ 5.59 µM); MIC Enterococcus faecalis (GC 3059) ([4]; Enterococcus faecalis (GC 3059)): 8 µg/mL (≈ 5.59 µM); MIC Enterococcus faecalis (GC 4552) ([4]; Enterococcus faecalis (GC 4552)): 8 µg/mL (≈ 5.59 µM); MIC Enterococcus faecalis (GC 4553) ([4]; Enterococcus faecalis (GC 4553)): 8 µg/mL (≈ 5.59 µM); MIC Enterococcus faecalis (GC 4554) ([4]; Enterococcus faecalis (GC 4554)): 8 µg/mL (≈ 5.59 µM); MIC Enterococcus faecalis (GC 6189) ([4]; Enterococcus faecalis (GC 6189)): 8 µg/mL (≈ 5.59 µM); MIC Enterococcus faecium (GC 2243) ([4]; Enterococcus faecium (GC 2243)): 8 µg/mL (≈ 5.59 µM); MIC Enterococcus faecium (GC 4556) ([4]; Enterococcus faecium (GC 4556)): 8 µg/mL (≈ 5.59 µM); MIC Enterococcus faecium (GC 4557) ([4]; Enterococcus faecium (GC 4557)): 8 µg/mL (≈ 5.59 µM); MIC Enterococcus faecalis (ATCC 29212) ([4]; strain ATCC 29212): 8 µg/mL (≈ 5.59 µM); MIC Enterococcus faecalis (GC 2242) ([4]; strain GC 2242): 8 µg/mL (≈ 5.59 µM); MIC Enterococcus faecium (GC 2243) ([4]; strain GC 2243): 8 µg/mL (≈ 5.59 µM); MIC Enterococcus faecalis (GC 2691) ([4]; strain GC 2691): 8 µg/mL (≈ 5.59 µM); MIC Enterococcus faecalis (GC 3059) ([4]; strain GC 3059): 8 µg/mL (≈ 5.59 µM); MIC Enterococcus faecalis (GC 4552) ([4]; strain GC 4552): 8 µg/mL (≈ 5.59 µM); MIC Enterococcus faecalis (GC 4553) ([4]; strain GC 4553): 8 µg/mL (≈ 5.59 µM); MIC Enterococcus faecalis (GC 4554) ([4]; strain GC 4554): 8 µg/mL (≈ 5.59 µM); MIC Enterococcus faecium (GC 4556) ([4]; strain GC 4556): 8 µg/mL (≈ 5.59 µM); MIC Enterococcus faecium (GC 4557) ([4]; strain GC 4557): 8 µg/mL (≈ 5.59 µM); MIC Enterococcus avium (GC 4558) ([4]; strain GC 4558): 8 µg/mL (≈ 5.59 µM); MIC Enterococcus faecalis (GC 6189) ([4]; strain GC 6189): 8 µg/mL (≈ 5.59 µM)
